Measurements published in patent publication US20010051654A1, “Treatment of inflammatory and autoimmune diseases” (priority 1997, published 2001).
Where two headings read alike, the source gives them in different places.

Key:
20 S proteasome [1] = assay: Chymotryptic to tryptic activity ratio assay, human samples; assay type: biochemical
From the text: βt=activation factor determined upon titration of the proteasome inhibitor. For the proteasome inhibitor 1, βt=1.28 in human samples.

20 S proteasome [2] = assay: Chymotryptic and tryptic assays in rat white blood cell lysates; assay type: biochemical; conditions: fit, FIG. 19
From the text: Data was fitted as in Example 10, to give kc/kt=17.6±and βt=1.1±0.2 (FIG. 19).

[3] = Twice weekly intravenous dosing for 4 weeks in Cynomolgus monkeys, clinical condition; assay type: in vivo; conditions: one high-dose male (0.100 mg/kg/dose), Day 26 after receiving 8 doses
Description: (§1) Male and female Cynomolgus monkeys (2.2 to 3.5 kg) were assigned to four groups (5/sex/group). Each group received 0 (vehicle control), 0.045, 0.067 or 0.100 mg/kg/dose of 1 as a single intravenous injection in a dose volume of 0.3 mL/kg twice weekly for 4 weeks (days 1, 5, 8, 12, 15, 19, 22 and 26). […] Three males from the control, low- and mid-dose groups, two high-dose males, and three females/group were sacrificed at the end of treatment on Day 27. Two animals/sex/group were designated as recovery animals and received treatment for 4 weeks followed by 2 weeks of recovery; they were sacrificed on Day 41.
(§2) Blood was collected for 20 S proteasome activity determination prior to treatment, at 1.0 h after dosing on Days 1, 8, 15 and 22, and at 1.0 h prior to dosing on Days 5, 12, 19 and 26; and on Days 31, 34, 38, and 41 (recovery sacrifice animals).

20 S proteasome [4] = assay: Ex vivo 20 S proteasome activity in primate white blood cells; design: species or system Cynomolgus monkeys
Description: as §1, §2

[5] = test system: 20 S proteasome from rabbit reticulocytes; assay: Chymotryptic and tryptic activities of purified 20 S proteasome from rabbit reticulocytes
Description: Chymotryptic and tryptic assays were performed as described in Examples 3 and 5 at increasing concentrations of the proteasome inhibitor 1.

20 S proteasome [6] = assay: Ex vivo 20 S proteasome activity in peripheral white blood cells of mice
Description: (§3) This preparation procedure applies to blood samples collected from mammals, particularly rats, mice, dogs, pigs, rabbits, non-human primates, or human subjects. Peripheral white blood cells are separated from blood samples upon collection for storage at about −70° C. until tested. To avoid interference with the assay due to the presence of endogenous proteasome inhibitors, it is important that red blood cells be rigorously excluded.
The blood sample is diluted 1:1 (v/v) with sterile saline, and the blood-saline mixture is layered over NYCOPREP™ separation medium (GIBCO BRL Products) in a 14×75 mm polystyrene test tube at a ratio of approximately 2:1 blood:NYCOPREP™. The sample is centrifuged at 500 x g for approximately 30 minutes at room temperature. The top layer is removed, leaving ˜2-3 mm of the cell band between the top and bottom layers. The remaining cell band is transferred by pipette to a clean centrifuge tube. The cell band is washed with 3 mL of cold phosphate-buffered saline and centrifuged at 400 x g for 5 minutes at 4° C. The supernatant is poured off and the pellet is resuspended in ˜1 mL of cold phosphate-buffered saline. The suspension is transferred to a 1.5 mL Eppendorf microfuge tube and microfuged at 6600 x g for approximately 10 minutes at 4° C. […]
The amount of 20 S proteasome activity in the test sample is calculated according to the following formula: [formula] […]

20 S proteasome [7] = assay: Ex vivo 20 S proteasome activity in peripheral white blood cells of rats
Description: as §3
The blood sample is diluted 1:1 (v/v) with sterile saline, and the blood-saline mixture is layered over NYCOPREP™ separation medium (GIBCO BRL Products) in a 14×75 mm polystyrene test tube at a ratio of approximately 2:1 blood:NYCOPREP™. The sample is centrifuged at 500 x g for approximately 30 minutes at room temperature. The top layer is removed, leaving ˜2-3 mm of the cell band between the top and bottom layers. The remaining cell band is transferred by pipette to a clean centrifuge tube. The cell band is washed with 3 mL of cold phosphate-buffered saline and centrifuged at 400 x g for 5 minutes at 4° C. The supernatant is poured off and the pellet is resuspended in ˜1 mL of cold phosphate-buffered saline. The suspension is transferred to a 1.5 mL Eppendorf microfuge tube and microfuged at 6600 x g for approximately 10 minutes at 4° C. The supernatant is aspirated off and the cell pellet is stored at −70° C.±10° C.
Measurement of this rate in the absence and in the presence of an inhibitor allows a determination of how enzyme is bound by inhibitor. This assay is used to measure 20 S proteasome activity in peripheral white blood cells in mammals, particularly rats, mice, dogs, pigs, rabbits, non-human primates, or human subjects.
The amount of 20 S proteasome activity in the test sample is calculated according to the following formula: [formula]
Dose formulations of 1 were prepared daily during the course of the study. Dilutions were prepared from a stock solution. The stock solution of 1 was made up in 98% saline (0.9%), 2% ethanol with 0.1% ascorbic acid. Dilutions of the stock were made in the same vehicle.
Drugs were administered in vehicle intravenously (IV) using a dose volume of 100 μL per mouse or 1.0 mL/kg in rats. Control groups were administered with the vehicle (98% saline [0.9%], 2% ethanol, 0.1% ascorbic acid). Animals were dosed with 1 as a single IV bolus given either once or on multiple occasions.
Following IV dosing with 1, blood was withdrawn at various time points and peripheral white blood cells were isolated.
Blood samples were collected at 1.0, 24 and 48 h following administration of 1.
In an additional repeat dose study, male Sprague-Dawley rats (250 to 450 g; n=6 per group) were treated with twice weekly intravenous doses of 1 (0.01 to 0.35 mg/kg/day in a dose volume of 1.0 mL/kg) for two weeks. The vehicle was 0. […] Blood samples were collected 1.0 h after the last dose for evaluation of 20 S proteasome activity.

[8] = design: species or system Sprague-Dawley rats; conditions: rat, in vivo, iv
Description: A single dose intravenous pharmacokinetics study with N-(pyrazine)carbonyl-L-phenylalanine-L-leucine boronic acid (1) was conducted in Sprague-Dawley rats (140 to 280 g). Animals were assigned to 3 groups (6/sex in Groups 1 and 2; 9/sex in Group 3). Animals in groups 1, 2, and 3 received 0.03, 0.1 or 0.3 mg/kg of 1, respectively, in the same dose volume.
Blood samples (approximately 1.0 mL) were collected from the jugular vein of animals pre-dose and at approximately 10 and 30 min and 1, 3 and 24 h post-dose on Day 1.

20 S proteasome [9] = molecular target: T1, 20 S proteasome (Rattus norvegicus, UniProt P28075)
T1 sequence (P28075 60-263): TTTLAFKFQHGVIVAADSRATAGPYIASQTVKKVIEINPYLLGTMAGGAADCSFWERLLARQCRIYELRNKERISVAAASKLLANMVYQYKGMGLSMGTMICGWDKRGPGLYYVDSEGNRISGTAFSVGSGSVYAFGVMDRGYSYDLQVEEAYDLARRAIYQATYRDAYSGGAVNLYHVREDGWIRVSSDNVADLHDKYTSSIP
Description: In two studies, female Wistar rats (150 to 200 g) were administered a single intravenous dose of 1 (0.03, 0.1 and 0.3 mg/kg in a dose volume of 1.0 mL/kg). […] Tissue samples were collected from liver and brain at 1.0, 24 and 48 h following administration for evaluation of 20 S proteasome activity.
In a third study, male Sprague-Dawley rats (250 to 450 g) were administered a single intravenous dose of 1 (0.1 and 0.3 mg/kg in a dose volume of 1.0 mL/kg). […] Blood and tissue samples were collected 1.0 h following administration for evaluation of 20 S proteasome activity. The tissues collected were brain, colon, liver, muscle (gastrocnemius), prostate and testes.

[10] = test system: actively sensitized Brown Norway rats; assay: Allergen-induced pulmonary leukocyte accumulation in actively sensitized Brown Norway rats (3b alone); assay type: in vivo
Description: Rats. Male Brown Norway rats were supplied by Harlan Olac Limited (Bicester, Oxon, UK) and delivered within the weight range of 180-200 g. Following acclimatization for at least five days, animals were actively sensitized over a 3-week period and were within the weight range 250-300 g at the time of allergen exposure. Food and water were provided ad libitum.
Sensitization. Ovalbumin (OA; 10 μg) mixed with aluminum hydroxide gel (10 mg) will be injected (0.5 mL, i.p.) into Brown Norway rats and repeated 7 and 14 days later.
Drug Treatment. On day 21, sensitized rats were anaesthetized (halothane 5% in O2) and 3b, dexamethasone, or vehicle (lactose) was instilled via a cannula placed directly into the trachea at 1 hour prior to OA exposure. This procedure was repeated at 24 hours and 48 hours after OA exposure.
Challenge. Following recovery, sensitized animals were restrained in plastic tubes and exposed (60 min) to an aerosol of OA (10 mg/mL) using a nose-only exposure system. Animals were sacrificed 72 hours later with pentobarbital (250 mg/kg i.p.).
Analysis. The lungs were lavaged using 3 aliquots (4 mL) of Hank's solution (HBSS x 10, 100 mL; EDTA 100 mM, 100 mL; HEPES 1M, 10 mL made to […] with water); recovered cells were pooled and the total volume of recovered fluid was adjusted to 12 mL by addition of Hank's solution. Total cells were counted (Sysmex Microcell Counter F-500, TOPA Medical Electronics Ltd., Japan). Smears were made by diluting recovered fluid (to approximately 10^6 cells/mL) and spinning an aliquot (100 μL) in a centrifuge (Cytospin, Shandon, UK). Smears were air dried, fixed using a solution of fast green in methanol (2 mg/L) for 5 seconds and stained with eosin G (5 seconds) and thiazine (5 seconds) (Diff-Quik, Baxter Dade Ltd, Switzerland) in order to differentiate eosinophils, neutrophils, macrophages and lymphocytes. A total of 500 cells per smear were counted by light microscopy under oil immersion (x 1000).

[11] = alternate daily IV for 14 days, 24 h after last dose
[12] = daily IV for 7 days, 24 h after last dose
[13] = once weekly IV for 8 weeks, 24 h after last dose
[14] = 1.0 h after single IV 0.1 and 0.3 mg/kg, male Sprague-Dawley rats
[15] = 0.1 and 0.3 mg/kg i.t. 1 h before, 24 h and 48 h after OA, 72 h
[16] = dose dependence, 72 hours after aerosolized ovalbumin

CC(C)C[C@H](NC(=O)[C@H](Cc1ccccc1)NC(=O)c1cnccn1)B(O)O [Compound 1, N-(pyrazine)carbonyl-L-phenylalanine-L-leucine boronic acid]
βt (activation factor determined upon titration of the proteasome inhibitor) (20 S proteasome [1]): 1.28
βt (activation factor of tryptic activity) (20 S proteasome [2]): 1.1±0.2
clinical condition [3]: sacrificed in moribund condition
white blood cell 20 S proteasome activity (20 S proteasome [4]; 1.0 h after dosing, 0.045, 0.067 or 0.100 mg/kg/dose IV twice weekly for 4 weeks): significant and dose-related decrease
white blood cell 20 S proteasome activity (20 S proteasome [4]; 72 hours after dosing, prior to the subsequent dose): recovered
white blood cell 20 S proteasome activity of the moribund animal (20 S proteasome [4]; high-dose male at sacrifice on Day 26 after 8 doses): low residual 20 S proteasome activity
βc (factor for chymotryptic activity of the E•I complex; 0 = total inhibition) [5]: 0
chymotryptic activity (FIG. 17) ([5]; increasing concentrations of 1): fully inhibits
tryptic activity (FIG. 17) ([5]; increasing concentrations of 1): activation
βt (activation factor of tryptic activity) ([5]; purified 20 S proteasome from rabbit reticulocytes, fit, FIG. 18): 1.38±0.05
20 S proteasome activity in white blood cells (20 S proteasome [6]; 1.0 h after single IV 0.1 to 3.0 mg/kg, all dose groups): significant (p<0.05) dose-related decrease
20 S proteasome activity in white blood cells (20 S proteasome [6]; 24 h after single IV 0.1 to 3.0 mg/kg): starts to recover
20 S proteasome activity in white blood cells (20 S proteasome [7]; 1.0 h after single IV 0.03 to 0.3 mg/kg, female Wistar rats): significant (p<0.05) dose-related decrease
20 S proteasome activity in white blood cells (20 S proteasome [7]; 24 h after single IV 0.03 to 0.3 mg/kg, female Wistar rats): smaller, but remained significant (p <0.05) in the higher dose groups
20 S proteasome activity in white blood cells (20 S proteasome [7]; 48 h after single IV 0.03 to 0.3 mg/kg, female Wistar rats): no longer significantly decreased
20 S proteasome activity in white blood cells (20 S proteasome [7]; [11]): significant dose-related decrease
dose groups with significant (p<0.05) decrease in 20 S proteasome activity (20 S proteasome [7]; [11]): > 0.2 mg/kg
20 S proteasome activity in white blood cells (20 S proteasome [7]; [12]): dose-related decrease
doses with significant inhibition of 20 S proteasome activity (20 S proteasome [7]; [12]): > 0.05 mg/kg
20 S proteasome activity in white blood cells (20 S proteasome [7]; [13]): significant (p<0.05) dose-related decrease
dose groups with significant (p<0.05) decrease in 20 S proteasome activity (20 S proteasome [7]; [13]): > 0.1 mg/kg
20 S proteasome activity in white blood cells (20 S proteasome [7]; twice weekly IV for 2 weeks (4 doses, 0.01 to 0.35 mg/kg/day), 1.0 h after last dose, male Sprague-Dawley rats): dose-related decrease
dose groups with significant (p<0.05) decrease in 20 S proteasome activity (20 S proteasome [7]; twice weekly IV for 2 weeks, 1.0 h after last dose, male Sprague-Dawley rats): > 0.03 mg/kg
clearance from the blood [8]: rapidly cleared
time to peak concentration (Tmax) ([8]; 0.3 mg/kg): ~10 min
20 S proteasome activity in rat liver (20 S proteasome [9]; 1.0 h after single IV 0.03, 0.1, 0.3 mg/kg, female Wistar rats): significant (p<0.05) dose-related decrease
20 S proteasome activity in peripheral white blood cells, colon, liver, muscle (gastrocnemius), and prostate (20 S proteasome [9]; [14]): Significant (p<0.05) dose-related decreases
20 S proteasome inhibition in brain and testes (20 S proteasome [9]; [14]): No 20 S proteasome inhibition
20 S proteasome activity in rat liver (20 S proteasome [9]; 24 h after single IV, high dose group 0.3 mg/kg, female Wistar rats): smaller, but remained significant (p<0.05) in the high dose group
20 S proteasome activity in rat liver (20 S proteasome [9]; 48 h after single IV, female Wistar rats): returned to baseline
penetration into brain tissue (20 S proteasome [9]; inferred from absent 20 S proteasome inhibition, female Wistar rats): lack of penetration
penetration into brain and testes (20 S proteasome [9]; inferred from absent 20 S proteasome inhibition, male Sprague-Dawley rats): lack of 1 penetration
20 S proteasome inhibition in brain tissue (20 S proteasome [9]; single IV 0.03, 0.1, 0.3 mg/kg, female Wistar rats): No 20 S proteasome inhibition

CCCC1C(=O)NC2(C(O)C(C)C)OC(=O)C12 (stereo not drawn) [Compound 3b, 7-n-propyl-clasto-lactacystin β-lactone]
influx of eosinophils in bronchoalveolar lavage fluid [10, 15]: reduced
influx of total leukocytes in bronchoalveolar lavage fluid [10, 15]: reduced
lymphocyte count in bronchoalveolar lavage fluid ([10]; all doses i.t., 72 h after OA): significant decrease
eosinophil count in bronchoalveolar lavage fluid (FIG. 4) [10, 16]: dose dependent inhibition
leukocyte count in bronchoalveolar lavage fluid (FIG. 3) [10, 16]: dose-dependent reduction
